Measurements reported in patent publication US20050026949A1, “Methods of therapeutic treatment using amounts of retinoids without regard to body weight” (Allergan, Inc., priority 2003, published 2005).

Legend:
[1] = in vivo; cited from earlier work
[2] = test system: patients in the studies of acitretin; details: published data (N = 525); cited from earlier work
[3] = cited from earlier work
[4] = oral, cited from earlier work; for bioavailability in the presence of food: Colburn et al
[5] = Food effect on pharmacokinetics of tazarotenic acid after oral tazarotene (Example 1); format: in vivo, human; details: 6.3 mg oral tazarotene
Protocol: For the purposes of this application, the bioavailability of a drug may be based on the human pharmokinetic parameters of maximum blood concentration (Cmax) and Area under the blood concentration-time curve (AUC).
(§1) The LC-MS/MS test for simultaneous detection of tazarotene and tazarotenic acid may be run as follows. One ml of plasma (EDTA-treated) is diluted with 1.0 ml of water. Diluted plasma is extracted using solid phase extraction (SPE) on a C18 cartridge. The eluate is evaporated, reconstituted in a water/methanol-based mobile phase, and injected onto a 4.6×50 mm, 3 μm pore size C-8 reverse phase high pressure liquid chromatography (HPLC) column (Agilent, Wilmington, Del.). Compounds are gradient-eluted at 1.2 mL/min and detected using an API 3000 triple quadrupole mass spectrometer with an Atmospheric Pressure Chemical Ionization (APCI) source (PE-Sciex, Concord, Ontario, Canada). Molecular reaction monitoring enhances the sensitivity and selectivity of this assay by collisionally dissociating the protonated molecules for the analyte and an internal standard thereby forming the product ions. The specific precursor-product ion pair monitored are m/z 352→324 for tazarotene, m/z 359→331 for the tazarotene internal standard, m/z 324→294 for tazarotenic acid, and m/z 331+298 for the tazarotenic acid internal standard. The lower limit of quantitation at assay range tested is 0.1 ng/mL, with a coefficient of variation and deviation from nominal concentration of <15%.

[6] = test system: RARs; experiment: Activation of RARs; format: cell-based
[7] = test system: RXRs; experiment: Activation of RXRs; format: cell-based
[8] = Body weight effect on plasma tazarotenic acid Cmax and AUC (Example 7); format: in vivo, human; details: 6 mg tazarotene daily, day 9
Protocol: as §1, with “<15%. […]” for “<15%.”

[9] = molecular target: T1, RAR-A (Homo sapiens, UniProt P10276); experiment: RAR-alpha activity; format: cell-based
T1 sequence (P10276 1-462): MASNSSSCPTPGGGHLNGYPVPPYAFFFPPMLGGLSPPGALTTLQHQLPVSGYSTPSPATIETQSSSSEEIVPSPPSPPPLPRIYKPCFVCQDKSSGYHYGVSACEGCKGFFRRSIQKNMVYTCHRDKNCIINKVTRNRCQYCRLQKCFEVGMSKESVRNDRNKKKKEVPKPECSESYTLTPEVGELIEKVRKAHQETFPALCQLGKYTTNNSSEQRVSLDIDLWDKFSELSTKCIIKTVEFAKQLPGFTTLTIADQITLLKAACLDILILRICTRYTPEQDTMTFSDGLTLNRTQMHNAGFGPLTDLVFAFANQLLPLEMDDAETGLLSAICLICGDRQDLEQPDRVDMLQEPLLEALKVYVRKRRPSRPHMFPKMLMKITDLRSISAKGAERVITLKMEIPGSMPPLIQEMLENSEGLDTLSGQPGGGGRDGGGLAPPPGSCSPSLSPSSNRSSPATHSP

[10] = topical administration of tazarotene; cited from earlier work
[11] = test system: patients in the studies of isotretinoin; details: published data (N = 525); cited from earlier work
[12] = test system: sebaceous glands; details: published reports (Geiger); cited from earlier work

COc1cc(C)c(/C=C/C(C)=C/C=C/C(C)=C/C(=O)O)c(C)c1C [Acitretin, acitretin]
bioavailability in relation to body weight [1]: increased with a reduced body weight
Alopecia [2]: 319 (60.8) NUMBER OF (%) OF PATIENTS
Arthralgia [2]: 102 (19.4) NUMBER OF (%) OF PATIENTS
Atrophy of skin [2]: 64 (12.2) NUMBER OF (%) OF PATIENTS
Back pain [2]: 41 (7.8) NUMBER OF (%) OF PATIENTS
Cheilitis [2]: 429 (81.7) NUMBER OF (%) OF PATIENTS
Dry Skin [2]: 174 (33.1) NUMBER OF (%) OF PATIENTS
Dry mouth/Oral dryness [2]: 76 (14.5) NUMBER OF (%) OF PATIENTS
Epistaxis [2]: 61 (11.6) NUMBER OF (%) OF PATIENTS
Erythematous rash/Erythema [2]: 57 (10.9) NUMBER OF (%) OF PATIENTS
Hyperesthesia [2]: 66 (12.6) NUMBER OF (%) OF PATIENTS
Nail Disorder [2]: 170 (32.4) NUMBER OF (%) OF PATIENTS
Paresthesia [2]: 56 (10.7) NUMBER OF (%) OF PATIENTS
Paronychia/Nail disorder [2]: 66 (12.6) NUMBER OF (%) OF PATIENTS
Pruritus [2]: 157 (29.9) NUMBER OF (%) OF PATIENTS
Rhinitis [2]: 153 (29.1) NUMBER OF (%) OF PATIENTS
Rigors/Chills [2]: 67 (12.8) NUMBER OF (%) OF PATIENTS
Skin peeling/Desquamation [2]: 345 (65.7) NUMBER OF (%) OF PATIENTS
Sticky skin/Skin disorder [2]: 129 (24.6) NUMBER OF (%) OF PATIENTS
Xerophthalmia/Eye disorder [2]: 112 (21.3) NUMBER OF (%) OF PATIENTS
effect on contraceptive effect of microdosed progestin preparations ([3]; in vivo): interferes with the contraceptive effect
bioavailability in the presence of food [4]: bioavailability is increased in the presence of food

CC1(C)CCSc2ccc(C#Cc3ccc(C(=O)O)cn3)cc21 [tazarotenic acid]
90% CI ratio of Cmax values ([5]; fed vs fasted): partially outside the 80-125% boundary
90% confidence intervals of AUC ratios (test/reference) ([5]; fed vs fasted): completely within the 80-125% boundary
average ratio of Cmax (test/reference) ([5]; fed vs fasted, Day 0): 1.00
average ratio of Cmax (test/reference) ([5]; fed vs fasted, Day 9): 0.829
effect of high-fat meal on bioavailability or pharmacokinetics of tazarotenic acid ([5]; within 30 minutes after high fat breakfast vs after 8-10 hour fast, single and multiple dose, healthy subjects): does not substantially affect
receptor specificity and selectivity [6]: specificity for the RARs and selectivity for RAR-β and RAR-γ
activation of RXRs [7]: does not activate
correlation of Cmax or AUC with body weight [8]: no correlation between either Cmax or AUC and body weight
RAR-A activity [9]: minimal
maximum blood concentration of tazarotenic acid [10]: less than 30 ng/ml

CC1=C(/C=C/C(C)=C/C=C/C(C)=C\C(=O)O)C(C)(C)CCC1 [Isotretinoin, isotretinoin]
bioavailability in relation to body weight [1]: increased with a reduced body weight
Cheilitis [11]: 472 (90.2) NUMBER OF (%) OF PATIENTS
Conjunctivitis [11]: 201 (38.4) NUMBER OF (%) OF PATIENTS
Desquamation central face/Desquamation [11]: 187 (35.8) NUMBER OF (%) OF PATIENTS
Dry Skin [11]: 172 (32.9) NUMBER OF (%) OF PATIENTS
Dry nose [11]: 136 (26.0) NUMBER OF (%) OF PATIENTS
Epistaxis [11]: 121 (23.1) NUMBER OF (%) OF PATIENTS
Fingertip peeling/Desquamation [11]: 63 (12.0) NUMBER OF (%) OF PATIENTS
Headache [11]: 44 (8.4) NUMBER OF (%) OF PATIENTS
Irritation of eyes [11]: 85 (16.3) NUMBER OF (%) OF PATIENTS
Pruritus [11]: 127 (24.3) NUMBER OF (%) OF PATIENTS
Red Scaly face/Desquamation [11]: 54 (10.3) NUMBER OF (%) OF PATIENTS
Skin fragility/Skin disorder [11]: 164 (31.4) NUMBER OF (%) OF PATIENTS
effect on blood concentrations of coadministered contraceptive components ([3]; coadministered contraceptive tablets): decreases blood concentrations of both ethinyl estradiol and norethindrone
decrease in sebum secretion rate [12]: about 90%
bioavailability in the presence of food [4]: bioavailability is increased in the presence of food
total dose needed to reach the same peak blood concentration in the fasted state as following a high fat meal [4]: more than doubled

CCOC(=O)/C=C(C)/C=C/C=C(C)/C=C/c1c(C)cc(OC)c(C)c1C [etretinate]
bioavailability in relation to body weight [1]: increased with a reduced body weight

CC1(C)CC[S+]([O-])c2ccc(C#Cc3ccc(C(=O)O)cn3)cc21 (stereo not drawn) [AGN 190844]
activation of RARs [6]: does not activate
activation of RXRs [7]: does not activate

C=C(c1ccc(C(=O)O)cc1)c1cc2c(cc1C)C(C)(C)CCC2(C)C [bexarotene]
effect on plasma concentration of coadministered tamoxifen ([3]; coadministration with tamoxifen): reduced plasma concentration of tamoxifen
bioavailability in the presence of food [4]: bioavailability is increased in the presence of food
